Measurements from ChEMBL document CHEMBL4371069, “Click chemistry for improvement in selectivity of quinazoline-based kinase inhibitors for mutant epidermal growth factor receptors” (Bioorg Med Chem Lett, 2019).

Columns and labels:
[1] = test system: NCI-H1975; test: Antiproliferative activity against human NCI-H1975 cells harboring EGFR T790M/L858R double mutant after 72 hrs by EZ-Cytox assay; type: functional, cell-based; details: NCI-H1975, 72 h
[2] = biological target: CYP2C19 (Homo sapiens, UniProt P33261); test: Inhibition of CYP2C19 in human liver microsomes assessed as residual activity at 10 uM using S-mephenytoin as substrate preincubated for 5 mins followed by NADPH addition and measured after 15 mins by LC-MS/MS analysis relative to control; type: ADME; details: probe S-mephenytoin, read-out: Activity
[3] = biological target: T1, CYP2A6 (Homo sapiens, UniProt P11509); test: Inhibition of CYP2A6 in human liver microsomes assessed as residual activity at 10 uM using coumarin as substrate preincubated for 5 mins followed by NADPH addition and measured after 15 mins by LC-MS/MS analysis relative to control; type: ADME; details: probe coumarin, read-out: Activity
T1 sequence (P11509 whole entry): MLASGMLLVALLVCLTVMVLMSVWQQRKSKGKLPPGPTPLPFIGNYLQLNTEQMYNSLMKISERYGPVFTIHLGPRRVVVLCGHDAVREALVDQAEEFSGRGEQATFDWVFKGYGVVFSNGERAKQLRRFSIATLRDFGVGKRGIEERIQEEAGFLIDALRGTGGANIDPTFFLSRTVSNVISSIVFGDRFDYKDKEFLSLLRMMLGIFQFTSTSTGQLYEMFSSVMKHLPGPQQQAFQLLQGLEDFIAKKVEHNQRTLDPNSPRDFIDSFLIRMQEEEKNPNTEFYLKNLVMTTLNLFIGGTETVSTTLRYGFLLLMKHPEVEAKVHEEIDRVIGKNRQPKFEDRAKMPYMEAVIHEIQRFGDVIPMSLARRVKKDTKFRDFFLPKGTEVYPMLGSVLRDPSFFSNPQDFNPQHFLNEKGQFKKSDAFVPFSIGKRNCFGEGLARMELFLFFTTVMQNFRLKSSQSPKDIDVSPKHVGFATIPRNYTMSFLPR

[4] = biological target: Epidermal growth factor receptor (Homo sapiens, UniProt P00533, L858R/T790M); test: biochemical; type: cell-based, Sf21
[5] = test system: A549; test: Antiproliferative activity against human A549 cells harboring wild-type EGFR after 72 hrs by EZ-Cytox assay; type: ADME, cell-based; details: A549, 72 h
[6] = biological target: T2, CYP1A2 (Homo sapiens, UniProt P05177); test: Inhibition of CYP1A2 in human liver microsomes assessed as residual activity at 10 uM using phenacetin as substrate preincubated for 5 mins followed by NADPH addition and measured after 15 mins by LC-MS/MS analysis relative to control; type: ADME; details: probe phenacetin, read-out: Activity
T2 sequence (P05177 whole entry): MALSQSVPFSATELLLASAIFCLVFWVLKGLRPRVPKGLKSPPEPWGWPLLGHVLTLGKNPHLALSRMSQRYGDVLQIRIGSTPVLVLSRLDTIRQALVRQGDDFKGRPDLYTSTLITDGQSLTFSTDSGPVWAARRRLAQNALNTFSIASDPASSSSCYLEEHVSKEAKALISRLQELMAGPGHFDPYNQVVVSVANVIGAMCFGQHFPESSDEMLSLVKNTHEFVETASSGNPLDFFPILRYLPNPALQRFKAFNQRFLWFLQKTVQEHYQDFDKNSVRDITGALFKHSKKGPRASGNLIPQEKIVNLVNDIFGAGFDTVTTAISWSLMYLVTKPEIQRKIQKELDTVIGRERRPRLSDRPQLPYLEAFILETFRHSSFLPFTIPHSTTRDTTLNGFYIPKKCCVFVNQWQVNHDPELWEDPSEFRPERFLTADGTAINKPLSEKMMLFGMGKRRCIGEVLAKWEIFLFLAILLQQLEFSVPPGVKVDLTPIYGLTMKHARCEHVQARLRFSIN

[7] = biological target: T3, CYP2B6 (Homo sapiens, UniProt P20813); test: Inhibition of CYP2B6 in human liver microsomes assessed as residual activity at 10 uM using bupropion as substrate preincubated for 5 mins followed by NADPH addition and measured after 15 mins by LC-MS/MS analysis relative to control; type: ADME; details: probe bupropion, read-out: Activity
T3 sequence (P20813 whole entry): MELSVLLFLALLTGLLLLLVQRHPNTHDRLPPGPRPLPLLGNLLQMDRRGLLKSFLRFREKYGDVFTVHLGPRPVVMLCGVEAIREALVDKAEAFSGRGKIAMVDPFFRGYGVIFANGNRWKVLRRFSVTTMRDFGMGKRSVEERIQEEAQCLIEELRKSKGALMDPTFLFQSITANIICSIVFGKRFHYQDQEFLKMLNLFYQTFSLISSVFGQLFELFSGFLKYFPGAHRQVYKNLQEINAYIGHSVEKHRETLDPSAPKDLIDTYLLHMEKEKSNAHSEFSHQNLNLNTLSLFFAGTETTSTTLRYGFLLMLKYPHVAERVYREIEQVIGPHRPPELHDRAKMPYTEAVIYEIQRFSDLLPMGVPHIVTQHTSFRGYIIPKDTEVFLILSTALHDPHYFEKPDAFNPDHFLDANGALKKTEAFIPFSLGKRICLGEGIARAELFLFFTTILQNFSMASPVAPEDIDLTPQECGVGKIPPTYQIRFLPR

[8] = biological target: CYP2C9 (Homo sapiens, UniProt P11712); test: Inhibition of CYP2C9 in human liver microsomes assessed as residual activity at 10 uM using tolbutamide as substrate preincubated for 5 mins followed by NADPH addition and measured after 15 mins by LC-MS/MS analysis relative to control; type: ADME; details: probe tolbutamide, read-out: Activity
[9] = biological target: CYP3A4 (Homo sapiens, UniProt P08684); test: Inhibition of CYP3A4 in human liver microsomes assessed as residual activity at 10 uM using midazolam as substrate preincubated for 5 mins followed by NADPH addition and measured after 15 mins by LC-MS/MS analysis relative to control; type: ADME; details: probe midazolam, read-out: Activity
[10] = biological target: T4, CYP2C8 (Homo sapiens, UniProt P10632); test: Inhibition of CYP2C8 in human liver microsomes assessed as residual activity at 10 uM using amiodiaquine as substrate preincubated for 5 mins followed by NADPH addition and measured after 15 mins by LC-MS/MS analysis relative to control; type: ADME; details: probe amiodiaquine, read-out: Activity
T4 sequence (P10632 whole entry): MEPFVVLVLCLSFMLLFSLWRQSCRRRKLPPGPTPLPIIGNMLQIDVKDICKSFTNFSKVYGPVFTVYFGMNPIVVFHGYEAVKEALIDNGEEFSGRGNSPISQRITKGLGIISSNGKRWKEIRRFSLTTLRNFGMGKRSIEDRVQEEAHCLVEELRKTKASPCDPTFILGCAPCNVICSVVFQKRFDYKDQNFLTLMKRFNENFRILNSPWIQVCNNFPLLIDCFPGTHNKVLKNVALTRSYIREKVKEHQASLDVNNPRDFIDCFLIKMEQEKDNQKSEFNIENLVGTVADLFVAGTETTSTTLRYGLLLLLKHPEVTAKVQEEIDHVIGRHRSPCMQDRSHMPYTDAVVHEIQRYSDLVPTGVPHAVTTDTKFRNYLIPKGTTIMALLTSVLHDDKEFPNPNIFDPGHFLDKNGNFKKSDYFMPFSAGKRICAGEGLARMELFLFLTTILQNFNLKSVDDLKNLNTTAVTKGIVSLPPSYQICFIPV

Sequence of CYP2C19 (P33261 whole entry): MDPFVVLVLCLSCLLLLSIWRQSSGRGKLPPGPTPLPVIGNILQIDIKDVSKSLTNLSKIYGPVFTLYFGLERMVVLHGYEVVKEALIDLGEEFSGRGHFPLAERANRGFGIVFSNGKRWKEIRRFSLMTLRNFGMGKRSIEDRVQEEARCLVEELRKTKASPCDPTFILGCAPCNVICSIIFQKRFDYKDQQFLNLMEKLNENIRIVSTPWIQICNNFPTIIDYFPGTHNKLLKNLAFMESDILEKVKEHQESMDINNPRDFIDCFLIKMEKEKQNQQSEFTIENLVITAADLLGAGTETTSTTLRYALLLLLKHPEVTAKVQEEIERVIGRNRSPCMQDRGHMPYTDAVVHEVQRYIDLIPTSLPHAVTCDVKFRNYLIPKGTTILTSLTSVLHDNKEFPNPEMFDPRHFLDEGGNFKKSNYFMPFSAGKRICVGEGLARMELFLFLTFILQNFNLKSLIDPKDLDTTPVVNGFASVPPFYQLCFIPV
Sequence of CYP3A4 (P08684 whole entry): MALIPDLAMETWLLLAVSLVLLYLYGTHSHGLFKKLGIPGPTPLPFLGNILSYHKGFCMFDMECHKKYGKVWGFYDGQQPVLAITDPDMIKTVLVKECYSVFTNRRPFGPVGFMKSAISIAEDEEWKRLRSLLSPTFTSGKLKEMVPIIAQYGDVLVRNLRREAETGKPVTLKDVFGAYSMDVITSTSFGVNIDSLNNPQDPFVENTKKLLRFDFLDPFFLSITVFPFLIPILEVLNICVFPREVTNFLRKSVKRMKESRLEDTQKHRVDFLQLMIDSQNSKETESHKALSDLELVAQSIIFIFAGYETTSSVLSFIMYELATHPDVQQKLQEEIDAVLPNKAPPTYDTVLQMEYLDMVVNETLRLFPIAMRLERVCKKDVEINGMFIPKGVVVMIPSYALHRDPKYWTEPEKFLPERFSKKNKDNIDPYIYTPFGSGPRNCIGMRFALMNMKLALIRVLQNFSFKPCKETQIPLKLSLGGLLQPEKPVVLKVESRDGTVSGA
Sequence of Epidermal growth factor receptor (P00533 25-1210 T790M/L858R limits assumed): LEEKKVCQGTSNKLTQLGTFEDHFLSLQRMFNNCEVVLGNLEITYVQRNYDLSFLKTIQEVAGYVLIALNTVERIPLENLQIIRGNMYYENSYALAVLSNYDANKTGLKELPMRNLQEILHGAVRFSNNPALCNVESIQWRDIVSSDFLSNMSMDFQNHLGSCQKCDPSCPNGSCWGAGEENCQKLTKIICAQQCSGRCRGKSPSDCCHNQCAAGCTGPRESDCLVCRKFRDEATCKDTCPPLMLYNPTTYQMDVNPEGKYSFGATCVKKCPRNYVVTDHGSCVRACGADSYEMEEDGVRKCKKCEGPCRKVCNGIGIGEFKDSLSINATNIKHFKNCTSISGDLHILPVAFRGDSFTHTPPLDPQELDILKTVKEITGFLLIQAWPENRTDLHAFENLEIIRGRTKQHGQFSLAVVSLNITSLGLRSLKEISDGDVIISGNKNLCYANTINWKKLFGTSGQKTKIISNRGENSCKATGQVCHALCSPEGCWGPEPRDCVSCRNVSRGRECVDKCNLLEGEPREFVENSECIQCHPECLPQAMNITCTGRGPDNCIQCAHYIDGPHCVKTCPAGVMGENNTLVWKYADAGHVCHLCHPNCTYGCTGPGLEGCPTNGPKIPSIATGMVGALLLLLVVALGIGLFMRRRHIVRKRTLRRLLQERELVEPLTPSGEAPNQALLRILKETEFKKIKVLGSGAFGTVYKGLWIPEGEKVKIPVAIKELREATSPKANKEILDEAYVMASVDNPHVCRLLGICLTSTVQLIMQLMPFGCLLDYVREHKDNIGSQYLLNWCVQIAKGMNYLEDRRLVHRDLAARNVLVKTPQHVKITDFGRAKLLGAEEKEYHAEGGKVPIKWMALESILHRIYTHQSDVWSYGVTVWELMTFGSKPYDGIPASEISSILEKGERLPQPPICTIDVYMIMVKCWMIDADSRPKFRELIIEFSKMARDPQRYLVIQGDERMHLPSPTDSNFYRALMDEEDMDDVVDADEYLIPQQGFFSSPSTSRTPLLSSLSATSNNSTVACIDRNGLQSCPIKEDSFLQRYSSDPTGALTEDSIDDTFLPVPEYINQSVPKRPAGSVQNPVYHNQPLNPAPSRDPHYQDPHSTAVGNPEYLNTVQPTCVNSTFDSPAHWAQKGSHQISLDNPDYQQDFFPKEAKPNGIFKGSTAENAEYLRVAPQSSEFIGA
Sequence of CYP2C9 (P11712 whole entry): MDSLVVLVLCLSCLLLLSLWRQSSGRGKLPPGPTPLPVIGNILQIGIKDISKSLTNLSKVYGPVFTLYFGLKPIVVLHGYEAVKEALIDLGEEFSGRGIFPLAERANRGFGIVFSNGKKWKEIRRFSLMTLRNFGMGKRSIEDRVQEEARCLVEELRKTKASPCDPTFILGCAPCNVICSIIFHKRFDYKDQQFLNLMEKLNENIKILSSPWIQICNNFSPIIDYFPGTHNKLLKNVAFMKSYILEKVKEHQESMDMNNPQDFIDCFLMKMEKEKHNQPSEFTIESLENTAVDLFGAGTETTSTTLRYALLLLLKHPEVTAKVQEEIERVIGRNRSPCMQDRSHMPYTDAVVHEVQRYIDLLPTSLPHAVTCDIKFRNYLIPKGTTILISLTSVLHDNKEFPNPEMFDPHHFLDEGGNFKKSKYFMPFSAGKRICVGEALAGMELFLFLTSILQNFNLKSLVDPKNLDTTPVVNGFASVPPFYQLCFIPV

Structure (SMILES): C=CC(=O)Nc1cc2c(Nc3ccc(F)c(Cl)c3)ncnc2cc1OCc1cn(Cc2ccc(Cl)cc2)nn1
- IC50 [1]: 304 nM
- activity at 0.25 h, 10 µM [2]: 56.4%
- activity at 0.25 h, 10 µM [3]: 89%
- IC50 [4]: 12 nM
- IC50 [5]: 2040 nM
- activity at 0.25 h, 10 µM [6]: 60.8%
- activity at 0.25 h, 10 µM [7]: 78.8%
- activity at 0.25 h, 10 µM [8]: 16.3%
- activity at 0.25 h, 10 µM [9]: 77.6%
- activity at 0.25 h, 10 µM [10]: 48.7%

Structure (SMILES): C=CC(=O)Nc1cc2c(Nc3ccc(F)c(Cl)c3)ncnc2cc1OCc1cn(Cc2ccc(F)cc2)nn1
- IC50 [1]: 453 nM
- activity at 0.25 h, 10 µM [2]: 51.1%
- activity at 0.25 h, 10 µM [3]: 82.7%
- IC50 [4]: 6 nM
- IC50 [5]: 4310 nM
- activity at 0.25 h, 10 µM [6]: 51.1%
- activity at 0.25 h, 10 µM [7]: 67.9%
- activity at 0.25 h, 10 µM [8]: 13.5%
- activity at 0.25 h, 10 µM [9]: 55.3%
- activity at 0.25 h, 10 µM [10]: 36.4%

Structure (SMILES): C=CC(=O)Nc1cc2c(Nc3ccc(F)c(Cl)c3)ncnc2cc1OCc1cn(Cc2cccc(F)c2)nn1
- IC50 [1]: 505 nM
- activity at 0.25 h, 10 µM [2]: 53.5%
- activity at 0.25 h, 10 µM [3]: 91%
- IC50 [4]: 4 nM
- IC50 [5]: 5500 nM
- activity at 0.25 h, 10 µM [6]: 52.5%
- activity at 0.25 h, 10 µM [7]: 67.1%
- activity at 0.25 h, 10 µM [8]: 11.8%
- activity at 0.25 h, 10 µM [9]: 50.1%
- activity at 0.25 h, 10 µM [10]: 35.6%
